As a reminder, the IC50 is the concentration needed to halve the response being measured. In general, melting point refers to the temperature of the solid-liquid transition.

The values below come from patent US7238725B2, “Tricyclic compounds useful for the treatment of inflammatory and allergic disorders: process for their preparation and pharmaceutical compositions containing them” (Glenmark Pharmaceuticals Ltd., priority 2002, dated 2007).

The target in the first data set is PDE4 enzyme. Kind of data set: Inhibition of Phosphodiesterase Enzymes (PDE4), [3H]cAMP hydrolysis. The data set is classed as biochemical. To be noted: PDE4 enzyme, 1 μM cAMP and 3H cAMP, 34° C.; read-out: IC50. The protocol:
Inhibition of Phosphodiesterase Enzymes (PDE4)
In this assay, PDE4 enzyme converts [^3H] cAMP to the corresponding [^3H] 5′-AMP in proportion to the amount of PDE4 present The [^3H] 5′-AMP then was quantitatively converted to free [^3H] adenosine and phosphate by the action of snake venom 5′-nucleotidase.
The assay was performed with modification of the method of Thompson and Appleman (Biochemistry; 1971; 10; 311-316) and Schwartz and Passoneau (Proc. Natl. Acad. Sci. U.S.A. 1974; 71; 3844-3848), both references incorporated herein by reference in their entirety, at 34° C. In a 200 ul total reaction mixture, the reaction mixture contained 12.5 mM of Tris, 5 mM MgCl2, 1 μM cAMP (cold) and ^3H cAMP (0.1 uCi), (Amersham). […] Drug samples were then added in the reaction mixture (25 μl/tube). The assay was initiated by addition of enzyme mix (75 μl) and the mixture was incubated for 20 minutes at 34° C. The reaction was stopped by boiling the tubes for 2 mins at 100° C. in a water bath. After cooling on ice for 5 minutes and addition of 50 ug/reaction of 5′-nucleotidase snake venom from Crotalus atrox incubation was carried out again for 20 min. at 34° C. The unreacted substrate was separated from (^3H) Adenosine by addition of Dowex AG 1-X8 (Biorad Lab), (400 ul) which was prequilibrated (1:1:1) in water and ethanol. Reaction mixture was then thoroughly mixed, placed on ice for 15 minutes, vortexed and centrifuged at 14,000 r.p.m. for 2 mins. After centrifugation, a sample of the supernatant was taken and added in 24 well optiplates containing Scintillant (1 ml) and mixed well. The samples in the plates were then determined for radioactivity in a Top Counter and the PDE4 activity was estimated. PDE4 enzyme was present in quantities that yield <30% total hydrolysis of substrate (linear assay conditions).
Results were expressed as percent inhibition (IC50) in nM concentrations. The IC50 values were determined from the concentration curves by nonlinear regression analysis.
The IC50 value for the compound examined was determined from concentration-response curves in which varying range of concentrations were considered as shown in table 1
Turning to `COc1ccc(C(=O)Nc2ccncc2)c2c1oc1ccc([N+](=O)[O-])cc12` [Example 39, N-(pyrid-4-yl)-4-methoxy-8-nitro dibenzo[b,d]furan-1-carboxamide], the IC50 was 31.7 nM.
On the same count and under the same terms, under `COc1ccc(C(=O)Nc2c(Cl)cncc2Cl)c2c3cc(Cl)ccc3n(CC3CCCCC3)c12` [Example 83, N4-(3,5-dichloro-4-pyridyl)-6-chloro-9-cyclohexylmethyl-1-methoxy-9H-4-carbazole carboxamide] stands 5.26 nM; under `CCOc1ccc(C(=O)Nc2c(Cl)c[n+]([O-])cc2Cl)c2c1oc1ccccc12` [Example 68, 3,5-Dichloro-4-(4-ethoxydibenzo[b,d]furan-1-ylcarboxamido)pyridine-N-oxide], 57 nM; under `COc1ccc(C(=O)Nc2c(Cl)cncc2Cl)c2c3ccccc3n(Cc3ccccc3)c12` [Example 88, N4-(3,5-dichloro-4-pyridyl)-9-benzyl-1-methoxy-9H-4-carbazolecarboxamide], 129 nM.
Still for that read-out and setting: under `COc1ccc(C(=O)Nc2ccncc2)c2c1[nH]c1ccccc12` [Example 79, N4-(4-pyridyl)-1-methoxy-9H-4-carbazole carboxamide] stands 128 nM; under `COc1ccc(C(=O)Nc2c(Cl)cncc2Cl)c2c3cc(Cl)ccc3n(Cc3ccccc3)c12` [Example 82, N4-(3,5-dichloro-4-pyridyl)-9-benzyl-6-chloro-1-methoxy-9H-4-carbazole carboxamide], 19.6 nM; under `COc1ccc(C(=O)Nc2ccncc2)c2c3cc(Cl)ccc3n(Cc3ccc(F)cc3)c12` [Example 93, N4-(4-pyridyl)-6-chloro-9-(4-fluorobenzyl)-1-methoxy-9H -4-carbazolecarboxamide], 161 nM.
The same measure, in the same setting: under `O=C(Nc1cccnc1)c1ccc(OC(F)F)c2oc3ccccc3c12` [Example 22, N-(pyrid-3-yl)-4-difluoromethoxy dibenzo[b,d]furan-1-carboxamide] stands 105 nM; under `O=C(Nc1c(Cl)cncc1Cl)c1ccc(OC(F)F)c2oc3ccc(N4CCCC4=O)cc3c12` [Example 121, N-(3,5-dichloropyrid-4-yl)-4-difluoromethoxy-8-(pyrrolidine-2-one-1-yl)-dibenzo[b,d]furan-1-carboxamide], 21.5 nM.
Take `CCOc1ccc(C(=O)Nc2c(Cl)cncc2Cl)c2c1oc1ccccc12` [Example 60, 3,5-Dichloro-4-(4-ethoxydibenzo[b,d]furan-1-ylcarboxamido)pyridine]: the IC50 amounted to 86.4 nM.
Still for that read-out and setting: as for `COc1ccc(Cn2c3ccc(Cl)cc3c3c(C(=O)Nc4c(Cl)c[n+]([O-])cc4Cl)ccc(OC)c32)cc1` [Example 98, N4-(3,5-dichloro-4-pyridyl-N-oxide)-6-chloro-9-(4-methoxybenzyl)-1-methoxy-9H-4-carba-zolecarboxamide], the figure is 39.6 nM.
Turning to `COc1ccc(C(=O)Nc2ccncc2)c2c3ccccc3n(Cc3ccc(F)cc3)c12` [Example 87, N4-(4-pyridyl)-9-(4-fluorobenzyl)-1-methoxy-9H-4-carbazole carboxamide], the IC50 was 393 nM.
Same read-out and setting: as for `O=C(Nc1cc[n+]([O-])cc1)c1ccc(OC(F)F)c2oc3ccccc3c12` [Example 21, N-(pyrid-4-yl)-4-difluoromethoxy dibenzo[b,d]furan-1-carboxamide-N1-oxide], the figure is 22.6 nM.
The same measure, in the same setting: under `O=C(Nc1ccc[n+]([O-])c1)c1ccc(OC(F)F)c2oc3ccccc3c12` [Example 23, N-(pyrid-3-yl)-4-difluoromethoxy dibenzo[b,d]furan-1-carboxamide-N1-oxide] stands 147 nM.
As to `COc1ccc(C(=O)Nc2ccncc2)c2c1oc1ccc(I)cc12` [Example 46, N-(pyrid-4-yl)-4-methoxy-8-iodo-dibenzo[b,d]furan-1-carboxamide], the IC50 stood at 36.8 nM.
As for `O=C(Nc1ccncc1)c1ccc(OCC2CC2)c2oc3ccccc3c12` [Example 27, N-(pyrid-4-yl)-4-cyclopropylmethoxy dibenzo[b,d]furan-1-carboxamide], the half-maximal inhibitory concentration (IC50) stood at 73.5 nM.
For the compound `COc1ccc(C(=O)Nc2c(Cl)c[n+]([O-])cc2Cl)c2c3cc(Cl)ccc3n(CC3CCCCC3)c12` [Example 99, N4-(3,5-dichloro-4-pyridyl-N-oxide)-6-chloro-9-cyclohexylmethyl-1-methoxy-9-H-4-carbazolecarboxamide], the IC50 was determined as 30.1 nM.
The same measure, in the same setting: as for `COc1ccc(C(=O)Nc2c(Cl)cncc2Cl)c2c3ccccc3n(Cc3ccc(F)cc3)c12` [Example 86, N4-(3,5-dichloro-4-pyridyl)-9-(4-fluorobenzyl)-1-methoxy-9H-4-carbazole carboxamide], the figure is 72 nM; as for `O=C(Nc1cccnc1)c1ccc(OCC2CC2)c2oc3ccccc3c12` [Example 29, N-(pyrid-3-yl)-4-cyclopropylmethoxy dibenzo[b,d]furan-1-carboxamide], 351 nM.
The same measure, in the same setting: as for `COc1ccc(NS(=O)(=O)c2ccc(OC)c3sc4ccc(S(=O)(=O)N(C)C)cc4c23)cc1` [Example 115, N1-(4-methoxyphenyl)-8,N8-dimethyl-4-methoxydibenzo[b,d]thiophen-8,1-disulfonamide], the figure is 37.4 nM; as for `COc1ccc(C(=O)Nc2c(Cl)c[n+]([O-])cc2Cl)c2c3cc(Cl)ccc3n(Cc3ccc(F)cc3)c12` [Example 97, N4-(3,5-dichloro-4-pyridyl-N-oxide)-6-chloro-9-(4-fluorobenzyl)-1-methoxy-9H-4-carbazolecarboxamide], 40.3 nM.
Turning to `COc1ccc(C(=O)Nc2c(Cl)cncc2Cl)c2c3cccc(Cl)c3n(Cc3ccc(F)cc3)c12` [Example 95, N4-(3,5dichloro-4pyridyl)-8-chloro-9-(4-Fluorobenzyl)-1-methoxy-9H-4-carbazole carboxamide], the IC50 was found to be 78.9 nM.
The same measure, in the same setting: as for `COc1ccc(Cn2c3ccc(Cl)cc3c3c(C(=O)Nc4c(Cl)cncc4Cl)ccc(OC)c32)cc1` [Example 85, N4-(3,5-dichloro-4-pyridyl)-6-chloro-9-(4-methoxybenzyl)-1-methoxy-9H-4-carbazolecarboxamide], the figure is 8.15 nM; as for `COc1ccc(C(=O)Nc2ccncc2)c2c1oc1ccc(Br)cc12` [Example 43, N-(pyrid-4-yl)-4-methoxy-8-bromo-dibenzo[b,d]furan-1-carboxamide], 61.2 nM; as for `O=C(Nc1cc[n+]([O-])cc1)c1ccc(OC(F)F)c2oc3ccc(C(F)(F)F)cc3c12` [Example 15, N-(pyrid-4-yl)-4-difluoromethoxy-8-trifluoromethyl dibenzo[b,d]furan-1-carboxamide-N1-oxide], 67.3 nM.
Same read-out and setting: as for `COc1ccc(C(=O)Nc2ccncc2)c2c1oc1ccccc12` [Example 3, N-(pyrid-4-yl)-4-methoxy dibenzo[b,d]furan-1-carboxamide], the figure is 8.68 nM; as for `COc1ccc(C(=O)Nc2c(Cl)cncc2Cl)c2c3cccc(Cl)c3n(CC3CCCCC3)c12` [Example 94, N4-(3,5dichloro-4-pyridyl)-8-chloro-9-cyclohexylmethyl-1-methoxy-9H-4-carbazole carboxamide], 281 nM.
Turning to `COc1ccc(C(=O)Nc2c(Cl)cncc2Cl)c2c3cc(Cl)ccc3n(Cc3ccc(F)cc3)c12` [Example 84, N4-(3,5-dichloro-4-pyridyl)-6-chloro-9-(4-fluorobenzyl)-1-methoxy-9H-4-carbazole carboxamide], the IC50 is 14.6 nM.
Consider `O=C(Nc1ccncc1)c1ccc(OC(F)F)c2oc3ccccc3c12` [Example 20, N-(pyrid-4-yl)-4-difluoromethoxy dibenzo[b,d]furan-1-carboxamide], for which the IC50 stood at 15.8 nM.

Test system in the next data set: not given
Experiment: not given
Conditions: not given
`O=C(Nc1ccc(Cl)cn1)c1ccc(OC(F)F)c2oc3ccccc3c12` [Example 24, N-(5-chloropyrid-2-yl)-4-difluoromethoxy dibenzo[b,d]furan-1-carboxamide] displayed a melting point of 155 to 157 °C.
Still for that read-out and setting: under `COc1ccc(S(=O)(=O)Nc2c(Cl)cncc2Cl)c2c1oc1ccccc12` [Example 54, N-(3,5-dichloropyrid-4-yl)-4-methoxy dibenzo[b,d]furan-1-sulfonamide] stands 242 to 244 °C; under `O=C(Nc1c(Cl)cncc1Cl)c1ccc(OCc2ccccc2)c2oc3ccccc3c12` [Example 37, N-(3,5-dichloropyrid-4-yl)-4-benzyloxy dibenzo[b,d]furan-1-carboxamide], 269 to 270 °C (dec.); under `O=C(Nc1ccccn1)c1ccc(OC(F)F)c2oc3ccc(C(F)(F)F)cc3c12` [Example 18, N-(pyrid-2-yl)-4-difluoromethoxy-8-trifluoromethyl dibenzo[b,d]furan-1-carboxamide], 169 to 170 °C.
Still for that read-out and setting: under `COc1ccc(S(=O)(=O)Nc2c(Cl)cccc2Cl)c2c1[nH]c1ccccc12` [Example 77, N4-(2,6-Dichlorophenyl)-1-methoxy-9H-4-carbazolsulphonamide] stands 201 to 205 °C.
